# Like-named read-outs stand apart in the source and are kept apart here.
# What was measured:
# [1] = biological target: recombinant full-length human hydroxyacid oxidase 1 (HAO1), the equivalent of hGOX (Homo sapiens (Human), UniProt Q9UJM8); test: In-vitro human glycolate oxidase (hGOX) assay (Amplex red/HRP fluorescence); type: biochemical
# Procedure: Biological Activity Assay: In-Vitro Human Glycolate Oxidase (hGOX) Assay
# The in-vitro glycolate oxidase assay was performed using recombinant full-length human hydroxyacid oxidase 1 (HAO1), the equivalent of hGOX. […] Purified HAO1 was dissolved in assay buffer consisting of 10 mM NaCl, 110 mM KCl, 2 mM MgCl2, 50 mM HEPES (pH 7.4) and 0.01% Triton™ X-100.
# [2] = biological target: glycolate oxidase (GOX) in HepaRG-CAR cells (Homo sapiens (Human), UniProt Q9UJM8); test: HepaRG-CAR cell-based assay for quantitation of glycolate oxidase inhibition (cellular glycolate flux, GC-MS)
# [3] = Solubility in phosphate buffered saline (PBS), pH 7.4; type: physicochemical; conditions: phosphate buffered saline pH 7.4, 1% DMSO, 1 hour shaking at room temperature
# Summary of the method: (§1)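 DMSO stock (10 mM) diluted into 100 mM phosphate buffer pH 7.4, or into deionized distilled water for the aqueous assay, at 1% final DMSO and shaken 1 h at room temperature. After centrifugation, supernatants quantified by LC-MS/MS against a calibration curve with internal standard.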
# [4] = Solubility in aqueous solution (deionized, distilled water); type: physicochemical; conditions: 1% DMSO, read-out: Aqueous Solubility H2O
# Summary of the method: as §1
# [5] = Metabolic stability in human liver microsomal preparation; type: in vitro ADME; conditions: human liver microsomes, NADPH, 37° C.; for CLint scaled at 1 μM / half-life at 1 μM: pH 7.4; for half-life at 1 μM: read-out: Metabolic Stability t1/2
# Summary of the method: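 Compound at 1.5 μM with 0.75 mg/mL human liver microsomes (concentrations before NADPH addition) in 0.1 M potassium phosphate, 1 mM EDTA, pH 7.4 was preincubated 5 min at 37 °C, then started with NADPH. Samples at 0, 5, 15, 30 and 45 min were quenched with acetonitrile/internal standard and analysed by LC/MS.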
# [6] = Stability in human plasma; type: in vitro ADME; conditions: for half-life at 2 μM: read-out: Plasma Stability T1/2
# Summary of the method: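 Pooled human plasma (pH 7.4-8) at 37° C, test compound spiked from a 0.02 mM solution in phosphate buffer with 0.5% BSA. Samples taken at 0, 5, 15, 30, 45 and 60 min, quenched with acetonitrile containing internal standard, and remaining compound measured by LC/MS.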
# [7] = Protein binding (plasma equilibrium dialysis); type: in vitro ADME; conditions: 5 hours at 37° C.; for fraction unbound at 5 h, 1 μM: read-out: Protein Binding Fraction Bound (converted)
# Summary of the method: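 Compound spiked into plasma at 1 μM final (0.2% DMSO) and dialysed against phosphate buffer for 5 hours at 37 °C with shaking. Donor and receiver samples, matrix-matched and acetonitrile-quenched with internal standard, quantified by LC/MS/MS alongside 0-hour plasma samples.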
# [8] = HepaRG-CAR cells, 500 μM glycolate, 48 hours incubation, read-out: IC50
# [9] = phosphate buffer (PBS), aqueous buffer, kinetic from dmso stock
# Chain of glycolate oxidase (GOX) in HepaRG-CAR cells (Q9UJM8 whole entry): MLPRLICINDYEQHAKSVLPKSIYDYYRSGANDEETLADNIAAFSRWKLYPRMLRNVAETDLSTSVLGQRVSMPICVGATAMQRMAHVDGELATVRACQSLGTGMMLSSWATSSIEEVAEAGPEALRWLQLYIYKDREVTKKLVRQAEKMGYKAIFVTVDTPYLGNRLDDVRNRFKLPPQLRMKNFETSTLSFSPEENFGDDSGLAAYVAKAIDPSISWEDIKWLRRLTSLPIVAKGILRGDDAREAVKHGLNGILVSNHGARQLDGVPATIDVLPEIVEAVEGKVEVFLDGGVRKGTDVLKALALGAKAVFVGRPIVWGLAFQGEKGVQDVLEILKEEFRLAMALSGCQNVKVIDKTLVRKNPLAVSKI
# Chain of recombinant full-length human hydroxyacid oxidase 1 (HAO1), the equivalent of hGOX (Q9UJM8 whole entry): as above
IC50 [1] [nM],"IC50 [2, 8] [nM]","solubility at 1 h [3, 9] [µM]",solubility at 1 h ([4]; kinetic from dmso stock) [µM],CLint scaled at 1 μM [5] [mL/min/kg],half-life at 1 μM ([5]; 0-45 min) [h],half-life at 2 μM [6] [h],"recovery at 5 h, 1 μM [7] [%]",IC50 [2] [nM],"fraction unbound at 5 h, 1 μM [7]",SMILES,"IC50 ([1]; 12.5 nM HAO1, 85 μM glycolate, 2.5% DMSO, read-out: IC50) [nM]",solubility at 1 h ([3]; read-out: Aqueous Solubility PBS) [µM],solubility at 1 h [4] [µM],Metabolic Stability Clint [5] [mL/min/kg],Metabolic Stability t1/2 ([5]; 0-45 min) [h],Plasma Stability T1/2 [6] [h],Protein Binding Recovery ([7]; 1 μM) [%]
380,> 10000,108,105,0.17,173,1.72,123,,,"O=C(O)c1nn[nH]c1Oc1cncc(-c2cccnc2)c1 [Example I-264, 5-([3,3′-Bipyridin]-5-yloxy)-1H-1,2,3-triazole-4-carboxylic acid]",,,,,,,
9,2500,102,91.7,5.51,5.26,1.78,112,,,"O=C(O)c1nn[nH]c1Oc1cccc(-c2cccc(Cl)c2)c1 [Example I-253, 5-((3′-Chloro-[1,1′-biphenyl]-3-yl)oxy)-1H-1,2,3-triazole-4-carboxylic acid]",,,,,,,
13,2500,108,101,17.7,1.64,4.87,98.2,,,"Cc1ccc(-c2cccc(Oc3[nH]nnc3C(=O)O)c2)cc1 [Example I-251, 5-((4′-Methyl-[1,1′-biphenyl]-3-yl)oxy)-1H-1,2,3-triazole-4-carboxylic acid]",,,,,,,
19,2000,103,108,5,5.79,3.71,99.2,,,"O=C(O)c1nn[nH]c1Oc1cccc(-c2ccccc2)c1 [Example I-249, 5-([1,1′-Biphenyl]-3-yloxy)-1H-1,2,3-triazole-4-carboxylic acid]",,,,,,,
5,> 10000,93.7,29.1,< 0.15,> 83.3,1.85,98.5,,,"O=C(O)c1nn[nH]c1Oc1ccc(-c2ccc(Br)cc2)cc1 [Example I-154, 5-((4′-Bromo-[1,1′-biphenyl]-4-yl)oxy)-1H-1,2,3-triazole-4-carboxylic acid]",,,,,,,
10,> 10000,96.3,45.8,14.4,2.01,1.93,87.5,,,"O=C(O)c1[nH]nnc1Oc1ccc(-c2ccc(Cl)c(Cl)c2)cc1 [Example I-171, 5-((3′,4′-Dichloro-[1,1′-biphenyl]-4-yl)oxy)-1H-1,2,3-triazole-4-carboxylic acid]",,,,,,,
6,5000,97.1,81,< 0.15,> 83.3,3.35,102,,,"O=C(O)c1nn[nH]c1Oc1cccc(-c2ccc(Cl)c(Cl)c2)c1 [Example I-255, 5-((3′,4′-Dichloro-[1,1′-biphenyl]-3-yl)oxy)-1H-1,2,3-triazole-4-carboxylic acid]",,,,,,,
8,,106,101,< 0.15,> 83.3,4.77,92.5,5000,,"COc1cccc(-c2ccc(Oc3[nH]nnc3C(=O)O)cc2)c1 [Example I-158, 5-((3′-Methoxy-[1,1′-biphenyl]-4-yl)oxy)-1H-1,2,3-triazole-4-carboxylic acid]",,,,,,,
13,2500,91.8,89.8,1.53,19,3.04,102,,0.022,"CS(=O)(=O)c1ccc(-c2cccc(Oc3[nH]nnc3C(=O)O)c2)cc1 [Example I-257, 5-((4′-(Methylsulfonyl)-[1,1′-biphenyl]-3-yl)oxy)-1H-1,2,3-triazole-4-carboxylic acid]",,,,,,,
50,2000,90.8,81.5,2.1,13.8,0.852,101,,,"O=C(O)c1nn[nH]c1Oc1ccc2ccccc2c1 [Example I-058, 5-(Naphthalen-2-yloxy)-1H-1,2,3-triazole-4-carboxylic acid]",,,,,,,
18,2000,93.1,96.1,0.45,64.3,1.33,105,,0.221,"O=C(O)c1nn[nH]c1Oc1cccc(-c2cccnc2)c1 [Example I-259, 5-(3-(Pyridin-3-yl)phenoxy)-1H-1,2,3-triazole-4-carboxylic acid]",,,,,,,
21,2500,100,94.4,2.81,10.3,1.79,114,,0.047,"O=C(O)c1nn[nH]c1Oc1cccc(-c2ccncc2)c1 [Example I-260, 5-(3-(Pyridin-4-yl)phenoxy)-1H-1,2,3-triazole-4-carboxylic acid]",,,,,,,
22,,90.5,86.9,0.4,71.6,8.52,113,10000,,"N#Cc1cccc(-c2ccc(Oc3[nH]nnc3C(=O)O)cc2)c1 [Example I-256, 5-((3′-Cyano-[1,1′-biphenyl]-4-yl)oxy)-1H-1,2,3-triazole-4-carboxylic acid]",,,,,,,
191,> 10000,97.2,94.2,< 0.15,> 83.3,1.63,120,,0.009,"O=C(O)c1nn[nH]c1Oc1cncc(-c2ccccc2)c1 [Example I-262, 5-((5-Phenylpyridin-3-yl)oxy)-1H-1,2,3-triazole-4-carboxylic acid]",,,,,,,
13,2000,104,98,7.66,3.78,5.02,97.1,,,"O=C(O)c1nn[nH]c1Oc1cccc(-c2ccc(Cl)cc2)c1 [Example I-252, 5-((4′-Chloro-[1,1′-biphenyl]-3-yl)oxy)-1H-1,2,3-triazole-4-carboxylic acid]",,,,,,,
17,2500,114,106,3.82,7.58,2.51,94.4,,,"O=C(O)c1nn[nH]c1Oc1cccc(-c2ccccc2F)c1 [Example I-254, 5-((2′-Fluoro-[1,1′-biphenyl]-3-yl)oxy)-1H-1,2,3-triazole-4-carboxylic acid]",,,,,,,

SMILES,IC50 [1] [nM],"IC50 [2, 8] [nM]","solubility at 1 h [3, 9] [µM]",solubility at 1 h ([4]; kinetic from dmso stock) [µM],CLint scaled at 1 μM [5] [mL/min/kg],half-life at 1 μM ([5]; 0-45 min) [h],half-life at 2 μM [6] [h],"recovery at 5 h, 1 μM [7] [%]",IC50 [2] [nM],"fraction unbound at 5 h, 1 μM [7]","IC50 ([1]; 12.5 nM HAO1, 85 μM glycolate, 2.5% DMSO, read-out: IC50) [nM]",solubility at 1 h ([3]; read-out: Aqueous Solubility PBS) [µM],solubility at 1 h [4] [µM],Metabolic Stability Clint [5] [mL/min/kg],Metabolic Stability t1/2 ([5]; 0-45 min) [h],Plasma Stability T1/2 [6] [h],Protein Binding Recovery ([7]; 1 μM) [%]
"O=C(O)c1nn[nH]c1Oc1ccc(-c2ccccn2)cc1 [Example I-261, 5-(4-(Pyridin-2-yl)phenoxy)-1H-1,2,3-triazole-4-carboxylic acid]",,> 10000,,,,,,,,,150,101.5,105,1.58,18.301,1.328,111.0
